In PubChem BioAssay (NCI):
“And” between values parts separate entries of the source, which are not always exact repeats. Equal values may be shown once.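 Dose response: 5 concentrations. Exposure: 48 h. Format: 96-well plates. Endpoint: linear interpolation; highest concentration if not reached. GI50 marks 50% less growth. TGI is the concentration that stops growth completely.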 *1 amine or outer side, *2 acyl side, *3 side chain or, on linkers, in order; H or OH if unused. Where a SMILES comes first, the peptide text is derived from it. [ ]: non-standard residue; d: D form. The star is where a group is joined. X11 = C/C=C/CC(C)C(O)[C@H](N[*:1])C(=O)[*:2]; Decanoyl = CCCCCCCCCC(=O)*; Leu(ol) = CC(C)C[C@H](N)CO; Iva = CC[C@](C)(N)C(=O)O; Aib = CC(C)(N)C(=O)O

Test system: MDA-MB-468 breast
Assay: inhibition of tumour cell growth, NCI panel, 48 h

Row | SMILES | GI50 | TGI
1 | CCCCCCCCCCCCCCCC[N+](C)(C)Cc1ccccc1 | 0.328 µM | 1.2 µM
2 | COc1cccc(C(=O)NC(c2ccc(C)cc2)c2cc(Cl)c3cccnc3c2O)c1 (centres undefined) | 0.397 µM | 2.72 µM
3 | CN1CCN(Cc2ccc(NC(=O)c3cncc(C#Cc4cnc5ccc(N6CCSCC6)nn45)c3)cc2C(F)(F)F)CC1 | 0.146 µM | 0.302 µM
4 | COc1ccc(CN2C(=O)/C(=C\c3cc(OC)c(OC)c(OC)c3)c3ccccc32)cc1 | 1.94 µM | 5.61 µM
5 | CCn1c(-c2nonc2N)nc2c(C#CC(C)(C)O)nc(OC[C@@H](N)c3ccccc3)cc21 | 4.06 µM | 7.68 µM
6 | Cc1csc(-c2nnc(Nc3ccc(Oc4ncccc4-c4ccnc(N)n4)cc3)c3ccccc23)c1 | < 0.0115 µM | > 100 µM
7 | Clc1cccc(/C=N/Nc2nc(N/N=C/c3cccc(Cl)c3)nc(N3CCOCC3)n2)c1 | 1.65 µM | 4.28 µM
8 | COCCOc1ccc(-c2nc3ccc(-c4nc5ccc(N6CCN(C)CC6)cc5[nH]4)cc3[nH]2)cc1 | 1.42 µM | 4.16 µM
9 | CCCOc1cc2ccccc2cc1C(=O)Nc1nc(N)c2c(ccc3nccc32)[nH]1 | 0.0542 µM | 0.516 µM
10 | CN1CC[C@@H](NC(=O)Nc2ccc(C#N)cc2)C[C@@H]1c1nc2ccccc2[nH]1 | 43.3 µM | > 100 µM
11 | C/C=C/CC(C)C(O)[C@H](NC(=O)[C@@H]1CCCN1C(=O)C(C)(C)NC(=O)CCCCCCCCC)C(=O)N[C@@](C)(CC)C(=O)N[C@@H](CCC(N)=O)C(=O)N[C@H](CCC(N)=O)C(=O)NC(C)(C)C(=O)NC(C)(C)C(=O)N[C@@H](CCC(N)=O)C(=O)N[C@H](CC(C)C)C(=O)N[C@H](CO)CC(C)C (stereo partly drawn) (Decanoyl-[Aib]P[X11][Iva]Q[dQ][Aib][Aib]Q[dL][Leu(ol)]) | 1.79 µM | 3.42 µM
12 | C=C1C(=O)O[C@H]2[C@H]1CC/C(COC(=O)NCc1ccc(Cn3c(=O)sn(-c4ccc(OC)cc4)c3=O)cc1)=C\CC[C@@]1(C)O[C@@H]21 | 1.53 µM | 3.54 µM
13 | COc1ccc(/C=N/NC(=O)c2cccc3cc[nH]c23)cc1O | 3.35 µM | > 25.2 µM
14 | Cc1cc(C)cc(NC2=C(Cl)C(=O)c3nc(C)ccc3C2=O)c1 | 1.64 µM | 3.2 µM
15 | COc1ccc(CCN=C2NC(=O)/C(=C/c3ccc4ncccc4c3)S2)cc1 | > 18.7 µM | > 25 µM
16 | COc1cc(/C(C#N)=C/c2nc3c(N4CCOCC4)nc(Cl)nc3n2C)cc(OC)c1OC | < 0.0131 µM | 
17 | Nc1cc(NN=C(c2ccc(O)cc2)c2ccc(O)cc2)c([N+](=O)[O-])cc1[N+](=O)[O-] | 2.19 µM | 4.82 µM
18 | Nc1ccccc1SC(CC(=O)c1ccccc1)c1cccc([N+](=O)[O-])c1 (centres undefined) | 15.4 µM | 31.3 µM
19 | COc1cc(-c2ccc3cc(OC)c(OC)c(OC)c3c2)cc(OC)c1OC | 3.3 µM | > 100 µM
20 | CC(C)[C@@H]1C=C2CC[C@H]3[C@](C)(CN)CCC[C@]3(C)[C@H]2CC1 | 13.2 µM | 28.2 µM
21 | Nc1ccc(C2=NNC(=O)Cc3cc4c(cc32)OCCO4)cc1Cl | 1.58 µM | 15.9 µM
22 | COc1cccc(-c2nc(-c3ccc(NC(=O)OC(C)C)cc3)[nH]c2-c2ccnc(Br)c2)c1 | 2.03 µM | 6.5 µM

Row | SMILES | GI50 | TGI
23 | O=C1NC(=NC(CO)Cc2ccccc2)S/C1=C\c1ccc2ncccc2c1 (centres undefined) | 7.07 µM and 2.14 µM | > 25 µM and 13.7 µM
24 | COc1ccc2nc3cc(Cl)ccc3c(NCCNCC(C)O)c2c1 (centres undefined) | 1.55 µM | 3.36 µM
25 | Cc1nnc(NC(=O)c2nc(S(=O)(=O)Cc3ccc(F)cc3)ncc2Cl)s1 | 1.2 µM | 3.28 µM
26 | CCCCCCCCCCn1cc[n+](C)c1 | 0.481 µM | 
27 | O=C(Nc1ccc(Oc2ccc(Nc3nc4ccccc4s3)cc2)cc1)Nc1ccc(Cl)c(C(F)(F)F)c1 | 0.405 µM | 2.2 µM
28 | Nc1n[nH]c2cccc(C#Cc3cccc(C(=O)Nc4ccc(CN5CCOCC5)c(C(F)(F)F)c4)c3)c12 | 2.87 µM | 9.72 µM
29 | O=C(N/N=C/c1ccc[nH]1)c1[nH]c2ccc(Br)cc2c1-c1ccccc1 | 0.196 µM | 1.15 µM
30 | CCN(C(=O)N1CCN(c2cc3c(cc2F)c(=O)c(C(=O)O)cn3C2CC2)CC1)c1nc(-c2ccc(Cl)cc2)cs1 | 1.49 µM | 6.79 µM
31 | Nc1c(C(=O)Nc2cccc(C(F)(F)F)c2)sc2nc3c(cc12)CCCCC3 | 0.394 µM | 3.01 µM
32 | O=C1c2cc3c(cc2-c2c1c1ccc(F)cc1c(=O)n2C[C@H](O)[C@@H](O)[C@H](O)CO)OCO3 | 0.0274 µM | 0.0759 µM
33 | Nc1n[nH]c2cc(F)c([C@@H]3Nc4ccc5[nH]ncc5c4[C@H]4C5CCC(C5)[C@@H]34)cc12 (some centres undefined) | 0.15 µM | 1.9 µM
34 | COc1ccc(-c2cn[nH]c2-c2cc(OC)c(OC)c(OC)c2)cc1 | 0.0422 µM | 30.3 µM
35 | c1ccc(Sc2ncnc3ccccc23)cc1 | 2.98 µM | 12.3 µM
36 | CC1(COc2ccc3c(c2)ncn3-c2ccc3cccc(N4CCC(N)CC4)c3n2)COC1 | 1.34 µM and 2 µM | 2.94 µM and 4.95 µM
37 | CN(C)c1cc(NN=C(c2ccc(O)cc2)c2ccc(O)cc2)c([N+](=O)[O-])cc1[N+](=O)[O-] | 10.1 µM | 22.6 µM
38 | CCN1C(=O)N(c2ccccc2)C2NC(=S)N(/N=C/C=C/c3ccccc3OC)C21 (centres undefined) | 0.114 µM | 14.2 µM
39 | O=C(/C(=C/c1ccc([N+](=O)[O-])cc1)SCc1ccccc1)c1ccc(Cl)cc1 | 2.25 µM | 5.83 µM
40 | COC[C@H]1Cn2cc(-c3nc(Nc4ccnn4C)ncc3C)nc2C(=O)N1Cc1ccc(F)c(F)c1 | 26.3 µM | > 100 µM
41 | COc1ccc([C@H]2[C@H](O)C(=O)N2c2cc(OC)c(OC)c(OC)c2)cc1O | < 0.01 µM | > 100 µM
42 | O=C(CCCSc1nc(-c2ccccc2)cc(-c2ccccc2)n1)NO | 1.49 µM | 4.69 µM
43 | CCN(Cc1ccc(F)cc1)c1cc(Cl)c(CO)c(Cl)c1 | 1.89 µM | 6.34 µM
